Laboratory results as given in ChEMBL document CHEMBL4308829, “Design and Synthesis of Novel Positive Allosteric Modulators of α7 Nicotinic Acetylcholine Receptors with the Ability To Rescue Auditory Gating Deficit in Mice” (J Med Chem, 2018).
Calls of active or inactive are those of the source.

Key:
[1] = biological target: T1, Neuronal acetylcholine receptor subunit alpha-7 (Homo sapiens, UniProt P36544); assay: Positive allosteric modulation of human alpha7 nAChR expressed in Xenopus laevis oocytes assessed as increase in acetylcholine-induced channel current at 10 uM at -90 mV holding potential preincubated for 2 mins followed by co-application with acetylcholine for 10 secs by two-electrode voltage clamp method relative to control; type: cell-based
[2] = biological target: T1, Neuronal acetylcholine receptor subunit alpha-7; assay: Agonist activity at human alpha7 nAChR expressed in Xenopus laevis oocytes assessed as induction of channel current at -90 mV holding potential by two-electrode voltage clamp method; type: cell-based
[3] = biological target: T1, Neuronal acetylcholine receptor subunit alpha-7; assay: Positive allosteric modulation of human alpha7 nAChR expressed in Xenopus laevis oocytes assessed as increase in acetylcholine-induced channel current at -90 mV holding potential preincubated for 2 mins followed by co-application with acetylcholine for 10 secs by two-electrode voltage clamp method; type: cell-based
Mus musculus = assay: Anti-schizophrenic activity in C57BL/6J mouse assessed as protection against MK-801-induced auditory gating deficit by measuring prepulse inhibition impairment at 1 mg/kg, ip at 8 to 16 dB prepulse intensity (reference value: 11%); type: functional; design: scale not given: the % may be the effect or the level left

T1 sequence (P36544 whole entry): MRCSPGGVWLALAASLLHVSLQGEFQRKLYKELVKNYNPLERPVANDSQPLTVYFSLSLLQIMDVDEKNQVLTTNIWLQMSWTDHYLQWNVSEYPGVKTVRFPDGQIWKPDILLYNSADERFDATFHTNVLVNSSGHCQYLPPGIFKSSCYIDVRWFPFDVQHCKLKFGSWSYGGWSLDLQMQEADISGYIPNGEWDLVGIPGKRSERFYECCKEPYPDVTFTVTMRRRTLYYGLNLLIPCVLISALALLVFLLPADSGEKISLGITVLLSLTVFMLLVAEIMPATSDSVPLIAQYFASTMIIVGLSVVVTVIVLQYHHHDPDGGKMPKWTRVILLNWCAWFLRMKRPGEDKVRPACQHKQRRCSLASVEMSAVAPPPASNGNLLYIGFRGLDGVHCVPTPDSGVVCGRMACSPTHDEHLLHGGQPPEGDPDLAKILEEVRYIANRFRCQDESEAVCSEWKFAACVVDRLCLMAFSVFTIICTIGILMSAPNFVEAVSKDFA

Row | SMILES | %max [1] | Activity [2] | EC50 [3] | Activity (Mus musculus)
1 | Cc1ccc(CSc2nc3ncn(-c4c(C)cccc4Cl)c(=O)c3s2)cc1 | 321% | inactive | – | –
2 | Cc1ccc(S(=O)(=O)Nc2nc3ncn(-c4c(C)cccc4Cl)c(=O)c3s2)cc1 | 97% | inactive | – | –
3 | CN1CCN(C2=Nc3cc(Cl)ccc3Nc3ccccc32)CC1 [CLOZAPINE] | – | – | – | 32%
4 | Cc1cccc(Cl)c1-n1cnc2nc(SCc3ccc(F)cc3)sc2c1=O | 788% | inactive | 2.17 µM | –
5 | Cc1nc(Cl)cc(Nc2nc3ncn(-c4c(C)cccc4Cl)c(=O)c3s2)n1 | 320% | inactive | – | –
6 | O=c1c2sc(SCc3ccccc3)nc2ncn1-c1ccccc1Cl | 217% | inactive | – | –
7 | CCCNc1nc2ncn(-c3c(C)cccc3Cl)c(=O)c2s1 | inactive | inactive | – | –
8 | Cc1ccc(N(C)c2nc3ncn(-c4c(C)cccc4Cl)c(=O)c3s2)cc1 | 107% | inactive | – | –
9 | Cc1ccc(Nc2ccc3ncn(-c4c(C)cccc4Cl)c(=O)c3c2)cc1 | 63% | inactive | – | –
10 | Cc1ccc(C(=O)Nc2nc3ncn(-c4c(C)cccc4Cl)c(=O)c3s2)cc1 | 450% | inactive | 20.4 µM | –
11 | Cc1cccc(Cl)c1-n1cnc2nc(SCc3cccc(F)c3)sc2c1=O | 1140% | inactive | 7.65 µM | –
12 | Cc1ccccc1-n1cnc2nc(SCc3ccccc3)sc2c1=O | 171% | inactive | – | –
13 | COc1ccc(CSc2nc3ncn(-c4c(C)cccc4Cl)c(=O)c3s2)cc1 | 292% | inactive | – | –
14 | Cc1ccc(-c2nc3ncn(-c4c(C)cccc4Cl)c(=O)c3s2)cc1 | 185% | inactive | – | –
15 | Cc1cccc(Cl)c1-n1cnc2nc(SCCCc3ccccc3)sc2c1=O | 174% | inactive | – | –
16 | O=c1c2sc(SCc3ccccc3)nc2ncn1-c1ccc(F)cc1 | 75% | inactive | – | –
17 | Cc1cccc(Cl)c1-n1cnc2nc(SCc3ccc(Br)cc3)sc2c1=O | 320% | inactive | – | –
18 | O=c1c2sc(SCc3ccccc3)nc2ncn1-c1cccc(F)c1 | 119% | inactive | – | –
19 | O=c1c2sc(SCc3ccccc3)nc2ncn1-c1ccc(Cl)cc1 | 104% | inactive | – | –
20 | Cc1ccc(Sc2nc3ncn(-c4c(C)cccc4Cl)c(=O)c3s2)cc1 | 226% | inactive | – | –
21 | Cc1cccc(Cl)c1Nc1ncnc2nc(SCc3ccccc3)sc12 | 33% | inactive | – | –
22 | Cc1cccc(Cl)c1-n1cnc2nc(Nc3cc(Cl)ncn3)sc2c1=O | 200% | inactive | – | –
23 | O=c1c2sc(SCc3ccccc3)nc2ncn1-c1ccccc1F | 127% | inactive | – | –
24 | Cc1cccc(Cl)c1-n1cnc2nc(SCc3ccc(F)cc3F)sc2c1=O | 1050% | inactive | 3.54 µM | –
25 | Cc1cc(Nc2nc3ncn(-c4c(C)cccc4Cl)c(=O)c3s2)cc(C)c1C | 600% | inactive | – | –
26 | Cc1cccc(Cl)c1-n1cnc2nc(SCc3ccc(Cl)cc3)sc2c1=O | 444% | inactive | 1.19 µM | –

Continued, in another order:

Row | %max [1] | Activity [2] | EC50 [3] | SMILES | Activity (Mus musculus)
27 | inactive | inactive | – | Cc1cccc(Cl)c1-n1cnc2nc(Nc3ccc(Cl)nn3)sc2c1=O | –
28 | 250% | inactive | – | Cc1cccc(Cl)c1-n1cnc2nc(Nc3ccc(F)cc3)sc2c1=O | –
29 | 558% | inactive | 2.05 µM | Cc1cccc(Cl)c1-n1cnc2nc(SCc3ccccc3F)sc2c1=O | –
30 | inactive | inactive | – | Cc1cccc(Cl)c1-n1cnc2nc(NCc3ccccc3)sc2c1=O | –
31 | 300% | inactive | – | Cc1cccc(Cl)c1-n1cnc2nc(Nc3ccccc3)sc2c1=O | –
32 | 200% | inactive | – | Cc1cccc(Cl)c1-n1cnc2nc(Nc3ccc(Cl)cc3)sc2c1=O | –
33 | 1540% | inactive | – | Cc1cccc(Nc2nc3ncn(-c4c(C)cccc4Cl)c(=O)c3s2)c1 | –
34 | 305% | inactive | – | Cc1cc(Cl)cc(Nc2nc3ncn(-c4c(C)cccc4Cl)c(=O)c3s2)c1 | –
35 | 111% | inactive | – | Cc1ccc(CNc2nc3ncn(-c4c(C)cccc4Cl)c(=O)c3s2)cc1 | –
36 | 200% | inactive | – | Cc1cccc(Cl)c1-n1cnc2nc(Nc3ccc(OC(F)(F)F)cc3)sc2c1=O | –
37 | 300% | inactive | – | Cc1cccc(Cl)c1-n1cnc2nc(Nc3cccc(Cl)c3)sc2c1=O | –
38 | 300% | inactive | – | Cc1ccccc1Nc1nc2ncn(-c3c(C)cccc3Cl)c(=O)c2s1 | –
39 | 300% | inactive | – | Cc1cccc(Cl)c1-n1cnc2nc(Nc3ccc(F)c(F)c3)sc2c1=O | –
40 | inactive | inactive | – | Cc1cccc(Cl)c1-n1cnc2nc(Nc3ccccn3)sc2c1=O | –
41 | 450% | inactive | – | Cc1cccc(Cl)c1-n1cnc2nc(Nc3cccc(F)c3)sc2c1=O | –
42 | 200% | inactive | – | Cc1cccc(Cl)c1-n1cnc2nc(Nc3ccccc3F)sc2c1=O | –
43 | 1620% | inactive | 8.45 µM | Cc1ccc(Nc2nc3ncn(-c4c(C)cccc4Cl)c(=O)c3s2)cc1 | –
44 | 250% | inactive | – | CCc1ccc(Nc2nc3ncn(-c4c(C)cccc4Cl)c(=O)c3s2)cc1 | –
45 | 112% | inactive | – | Cc1cccc(Cl)c1-n1cnc2nc(SCCc3ccccc3)sc2c1=O | –
46 | 1100% | inactive | – | Cc1cc(C)cc(Nc2nc3ncn(-c4c(C)cccc4Cl)c(=O)c3s2)c1 | –
47 | 650% | inactive | – | Cc1ccc(Nc2nc3ncn(-c4c(C)cccc4Cl)c(=O)c3s2)cc1C | –
48 | 101% | inactive | – | Cc1cccc(Cl)c1-n1cnc2nc(Nc3ccncn3)sc2c1=O | –
49 | 150% | inactive | – | Cc1cccc(Cl)c1-n1cnc2nc(Nc3ccc(Br)cc3)sc2c1=O | –
50 | 387% | inactive | 5.65 µM | Cc1ccc(Nc2nc3ncn(-c4c(C)cccc4Cl)c(=O)c3s2)cc1F | –
51 | 200% | inactive | – | COc1ccc(Nc2nc3ncn(-c4c(C)cccc4Cl)c(=O)c3s2)cc1 | –
